Results as given in ChEMBL document CHEMBL5360646, “Optimization of M3 Antagonist-PDE4 Inhibitor (MAPI) Dual Pharmacology Molecules for the Treatment of COPD” (J Med Chem, 2023).

Assays:
[1] = target: 3',5'-cyclic-AMP phosphodiesterase 4B (Homo sapiens, UniProt Q07343); test: Inhibition of human recombinant PDE4B2 expressed in baculovirus expression system using cAMP as substrate incubated for 2 hrs by HTRF assay
[2] = target: Muscarinic acetylcholine receptor M3 (Homo sapiens, UniProt P20309); test: Displacement of [3H]N-methylscopolamine chloride from human muscarinic M3 receptor incubated for 2 hrs by radioligand binding assay
Muscarinic acetylcholine receptor M3, sequence (P20309 whole entry): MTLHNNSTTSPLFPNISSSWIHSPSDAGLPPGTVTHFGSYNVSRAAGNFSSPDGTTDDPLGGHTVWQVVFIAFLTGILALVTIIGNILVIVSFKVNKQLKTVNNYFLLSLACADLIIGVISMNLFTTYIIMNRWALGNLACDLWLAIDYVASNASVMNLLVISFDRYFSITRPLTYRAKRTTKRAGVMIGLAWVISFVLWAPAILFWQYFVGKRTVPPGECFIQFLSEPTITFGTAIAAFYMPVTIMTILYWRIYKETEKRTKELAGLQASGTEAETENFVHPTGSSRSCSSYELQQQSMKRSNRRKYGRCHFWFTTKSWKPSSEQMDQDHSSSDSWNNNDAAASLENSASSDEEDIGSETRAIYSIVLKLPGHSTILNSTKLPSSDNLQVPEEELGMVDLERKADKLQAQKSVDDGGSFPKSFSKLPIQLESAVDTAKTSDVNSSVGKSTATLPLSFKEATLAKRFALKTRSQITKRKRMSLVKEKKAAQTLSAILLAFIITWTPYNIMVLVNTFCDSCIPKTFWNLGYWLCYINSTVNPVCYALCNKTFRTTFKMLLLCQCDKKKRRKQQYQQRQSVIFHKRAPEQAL

Trachea = test: Bronchoconstriction activity in Sprague-Dawley rat trachea assessed as inhibition of carbachol-induced tracheal contraction; assay type: functional, tissue-based
[3] = Antiinflammatory activity against LPS-stimulated human PBMC cells assessed reduction in TNFalpha level incubated for 18 hrs by ELISA analysis; assay type: functional, cell-based

3',5'-cyclic-AMP phosphodiesterase 4B, sequence (Q07343 whole entry): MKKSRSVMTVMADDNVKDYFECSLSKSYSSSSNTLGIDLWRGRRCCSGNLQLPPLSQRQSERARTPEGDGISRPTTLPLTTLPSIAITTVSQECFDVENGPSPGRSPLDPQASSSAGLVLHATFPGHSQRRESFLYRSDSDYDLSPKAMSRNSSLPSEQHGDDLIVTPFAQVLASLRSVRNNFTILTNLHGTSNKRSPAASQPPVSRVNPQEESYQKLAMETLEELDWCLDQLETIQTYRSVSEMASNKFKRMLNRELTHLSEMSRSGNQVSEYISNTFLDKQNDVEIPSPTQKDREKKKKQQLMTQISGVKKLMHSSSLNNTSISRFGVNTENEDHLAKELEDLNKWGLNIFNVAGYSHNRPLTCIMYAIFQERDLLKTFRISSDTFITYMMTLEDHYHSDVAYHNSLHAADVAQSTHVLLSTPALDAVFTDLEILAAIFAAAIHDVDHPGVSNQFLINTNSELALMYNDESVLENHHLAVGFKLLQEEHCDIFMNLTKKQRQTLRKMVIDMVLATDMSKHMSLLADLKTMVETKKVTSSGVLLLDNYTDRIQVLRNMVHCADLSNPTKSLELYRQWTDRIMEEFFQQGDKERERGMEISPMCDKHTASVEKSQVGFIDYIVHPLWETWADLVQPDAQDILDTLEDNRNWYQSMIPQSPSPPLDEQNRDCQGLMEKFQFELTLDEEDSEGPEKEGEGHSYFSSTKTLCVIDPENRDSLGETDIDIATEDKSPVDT

Row | Compound | IC50 [1] [nM] | Ki [2] [nM] | IC50 (Trachea; Rattus norvegicus, Sprague-Dawley, Trachea) [nM] | IC50 ([3]; Homo sapiens, PBMC, 18 h) [nM] | pIC50 (Trachea) | pIC50 ([3]; pbmc)
1 | CCOc1cc([C@@H](Cc2c(Cl)c[n+]([O-])cc2Cl)OC(=O)c2ccc(CN[C@@](CO)(C(=O)O[C@H]3CN4CCC3CC4)c3ccccc3)s2)ccc1OC | 6.31 | 25.1 |  |  |  | 
2 | CCOc1cc(C(=O)O[C@@H](Cc2c(Cl)c[n+]([O-])cc2Cl)c2ccc(OC)c(OC)c2)ccc1CNC(C(=O)O[C@H]1CN2CCC1CC2)c1ccccc1 (some centres not stated) | 7.94 | 1 |  |  |  | 
3 | CCOc1cc([C@H](Cc2c(Cl)cncc2Cl)OC(=O)c2ccc(CN[C@@](CO)(C(=O)O[C@H]3CN4CCC3CC4)c3ccccc3)s2)ccc1OC | 7.94 | 3.16 |  |  |  | 
4 | COCC(NCc1ccc(C(=O)O[C@@H](Cc2c(Cl)c[n+]([O-])cc2Cl)c2ccc(OC)c(OC)c2)s1)(C(=O)O[C@H]1CN2CCC1CC2)c1ccccc1 (stereo in doubt; 4f) | 1 | 3.16 |  |  |  | 
5 | COc1ccc([C@H](Cc2c(Cl)c[n+]([O-])cc2Cl)OC(=O)c2ccc(CNC(CO)(C(=O)O[C@H]3CN4CCC3CC4)c3ccccc3)c(OCC3CC3)c2)cc1OC (stereo in doubt; 9f) | 0.501 | 31.6 |  |  |  | 
6 | CN(C)C(=O)c1cccc(S(=O)(=O)N2CCC[C@H]2C(=O)O[C@@H](Cc2c(Cl)c[n+]([O-])cc2Cl)c2ccc(OC(F)F)c(OCC3CC3)c2)c1 | 0.0398 |  |  |  |  | 
7 | CCC(NCc1ccc(C(=O)O[C@@H](Cc2c(Cl)c[n+]([O-])cc2Cl)c2ccc(OC)c(OC)c2)s1)(C(=O)O[C@H]1CN2CCC1CC2)c1ccccc1 (stereo in doubt; 2f) | 2.51 | 0.316 | 25.1 | 2.51 |  | 
8 | COc1cc(C(=O)O[C@@H](Cc2c(Cl)c[n+]([O-])cc2Cl)c2ccc(OC)c(OC)c2)ccc1CNC(C(=O)O[C@H]1CN2CCC1CC2)c1ccccc1 (some centres not stated) | 5.01 | 0.631 |  |  |  | 
9 | COc1ccc([C@H](Cc2c(Cl)c[n+]([O-])cc2Cl)OC(=O)c2ccc(CNC(C(=O)O[C@H]3CN4CCC3CC4)c3ccccc3)cc2)cc1OC (some centres not stated) | 2.51 | 0.251 |  |  |  | 
10 | CCC(NCc1ccc(C(=O)O[C@@H](Cc2c(Cl)c[n+]([O-])cc2Cl)c2ccc(OC)c(OC)c2)s1)(C(=O)O[C@H]1CN2CCC1CC2)c1ccccc1 (stereo in doubt; 2s) | 3.16 | 3.98 |  |  |  | 
11 | COc1ccc([C@H](Cc2c(Cl)c[n+]([O-])cc2Cl)OC(=O)c2ccc(CNC(CO)(C(=O)O[C@H]3CN4CCC3CC4)c3ccccc3)c(OCC3CC3)c2)cc1OC (stereo in doubt; 9s) | 0.794 | > 50.1 |  |  |  | 
12 | COCC(NCc1ccc(C(=O)O[C@@H](Cc2c(Cl)c[n+]([O-])cc2Cl)c2ccc(OC)c(OC)c2)s1)(C(=O)O[C@H]1CN2CCC1CC2)c1ccccc1 (stereo in doubt; 4s) | 1.58 | 5.01 |  |  |  | 
13 | COc1ccc([C@H](Cc2c(Cl)c[n+]([O-])cc2Cl)OC(=O)c2ccc(CNC(C(=O)O[C@H]3CN4CCC3CC4)c3ccccc3)c(OCC3CC3)c2)cc1OC (some centres not stated) | 1 | 2.51 |  |  |  | 
14 | COc1ccc([C@H](Cc2c(Cl)c[n+]([O-])cc2Cl)OC(=O)c2ccc(CNC(CO)(C(=O)O[C@H]3CN4CCC3CC4)c3ccccc3)s2)cc1OCC1CC1 (stereo in doubt; 11s) | 1.26 | 0.251 |  |  | 7.8 | 8.5
15 | CS(=O)(=O)N1CCC[C@H]1C(=O)O[C@@H](Cc1c(Cl)c[n+]([O-])cc1Cl)c1ccc(OC(F)F)c(OCC2CC2)c1 | 0.501 |  |  |  |  | 
